Source: PubChem BioAssay AID2060886 (Molecular Pharmacology Branch, DTP, NCI, 2025)

Tested on: 653999-131-R-J2-PDC complex spheroids, growth inhibition
Experiment: Anticancer human tumor 653999-131-R-J2-PDC patient-derived lung adenocarcinoma cell line growth inhibition [RAS]
Conditions: for IC50: curve of first compound; for viability, T/C: stronger effect = lower value
In short: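 Multi-cell-type spheroids: tumor cells plus HUVEC endothelial cells and mesenchymal stem cells. RAS-pathway inhibitors were combined with targeted agents, each dosed in half-log steps down from clinical Cmax, or from 10 microM when Cmax was unknown.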
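Also: spheroids exposed to the agents for seven days before the readout.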

SMILES: CC(C)n1nc(-c2ccc3oc(N)nc3c2)c2c(N)ncnc21 + C#Cc1c(F)ccc2cc(O)cc(-c3ncc4c(N5CC6CCC(C5)N6)nc(OCC56CCCN5CC(F)C6)nc4c3F)c12
- IC50 (second compound 0.0316 µM): 13.6 nM
- IC50 (second compound 0.1 µM): 8.56 nM
- IC50 (second compound 0.316 µM): 2.52 nM
- IC50 (second compound 1 µM): < 0.316 nM
- IC50 (second compound 3.16 µM): < 0.316 nM
- IC50 (second compound 10 µM): < 0.316 nM
- viability, T/C (second compound 0.0316 µM, first compound 0.000316 µM): 97.1%
- viability, T/C (second compound 0.0316 µM, first compound 0.001 µM): 97.5%
- viability, T/C (second compound 0.0316 µM, first compound 0.00316 µM): 74.1%
- viability, T/C (second compound 0.0316 µM, first compound 0.01 µM): 57.8%
- viability, T/C (second compound 0.0316 µM, first compound 0.0316 µM): 34.1%
- viability, T/C (second compound 0.0316 µM, first compound 0.1 µM): 24.7%
- viability, T/C (second compound 0.1 µM, first compound 0.000316 µM): 94.5%
- viability, T/C (second compound 0.1 µM, first compound 0.001 µM): 99.5%
- viability, T/C (second compound 0.1 µM, first compound 0.00316 µM): 68.3%
- viability, T/C (second compound 0.1 µM, first compound 0.01 µM): 49%
- viability, T/C (second compound 0.1 µM, first compound 0.0316 µM): 28.1%
- viability, T/C (second compound 0.1 µM, first compound 0.1 µM): 21.3%
- viability, T/C (second compound 0.316 µM, first compound 0.000316 µM): 78%
- viability, T/C (second compound 0.316 µM, first compound 0.001 µM): 48.8%
- viability, T/C (second compound 0.316 µM, first compound 0.00316 µM): 57.9%
- viability, T/C (second compound 0.316 µM, first compound 0.01 µM): 35.3%
- viability, T/C (second compound 0.316 µM, first compound 0.0316 µM): 20.2%
- viability, T/C (second compound 0.316 µM, first compound 0.1 µM): 16.2%
- viability, T/C (second compound 1 µM, first compound 0.000316 µM): 42.1%
- viability, T/C (second compound 1 µM, first compound 0.001 µM): 38.6%
- viability, T/C (second compound 1 µM, first compound 0.00316 µM): 32.3%
- viability, T/C (second compound 1 µM, first compound 0.01 µM): 27.1%
- viability, T/C (second compound 1 µM, first compound 0.0316 µM): 16.1%
- viability, T/C (second compound 1 µM, first compound 0.1 µM): 10.1%
- viability, T/C (second compound 3.16 µM, first compound 0.000316 µM): 42%
- viability, T/C (second compound 3.16 µM, first compound 0.001 µM): 43.8%
- viability, T/C (second compound 3.16 µM, first compound 0.00316 µM): 24.3%
- viability, T/C (second compound 3.16 µM, first compound 0.01 µM): 20.1%
- viability, T/C (second compound 3.16 µM, first compound 0.0316 µM): 10.5%
- viability, T/C (second compound 3.16 µM, first compound 0.1 µM): 8.31%
- viability, T/C (second compound 10 µM, first compound 0.000316 µM): 22.6%
- viability, T/C (second compound 10 µM, first compound 0.001 µM): 27.4%
- viability, T/C (second compound 10 µM, first compound 0.00316 µM): 17%
- viability, T/C (second compound 10 µM, first compound 0.01 µM): 11.6%
- viability, T/C (second compound 10 µM, first compound 0.0316 µM): 7.55%
- viability, T/C (second compound 10 µM, first compound 0.1 µM): 5.84%
